In brackets after ≈: the same amount, converted by molar mass.
What was measured:
[1] = system: Helicobacter pylori HI-0015; assay: Antimicrobial activity, agar plate dilution method (strain HI-0015); assay type: cell-based; settings: HI0015, 48 h, two days at 37° C., read-out: MINIMUM GROWTH INHIBITION CONCENTRATION
Description: (§1) Helicobacter pylori is Gram negative microaerophile which has been recently isolated from human tunica mucosa ventriculi and seems to serve for pathopoiesis and recurrence of ulcer in alimentary canal. The compounds of formula (I) show an antimicrobial activity to inhibit the growth of Helicobacter pylori.
(§2) The media used were that of Muller-Hinton liquid medium (BBL) containing 7% horse serum, and of Heart-Infusin agar medium (Difco) containing 5% horse defibrinized blood. The culture was incubated for two days at 37° C. using Gaspack (BBL) without a catalyst.

[2] = system: Helicobacter pylori HI-0001; assay: Antimicrobial activity, agar plate dilution method (strain HI-0001); assay type: cell-based; settings: HI0001, 48 h, two days at 37° C., read-out: MINIMUM GROWTH INHIBITION CONCENTRATION
Description: as §1, §2

[3] = system: Water-immersion induced stress ulcer; assay: Water-immersion induced stress ulcer; assay type: in vivo, Wister male rats; settings: rats, single dose 30 mg/kg in 0.5% CMC one hour prior to stressing (water immersion, 6 h); for inhibition in vivo at 30 mg/kg: Rattus norvegicus
Procedure: Wister male rats (11-week age) fasted for 18 hours were placed in a restraint cage, which was in turn immersed to a depth of the pectoral region in water at 20 to 22° C. to leave the rats under stress for six hours. Then, the rats were drawn up from the water and put down by vertebral dislocation. Afterwards, the stomach was removed, infused with 5 ml of a 5% aqueous solution of formalin and was wholly immersed in the same solution for 30 minutes for fixation. The fixed sample was dissected along the curvature ventriculi major, and the ulcer regions were measured along their major length (in mm) by means of slide calipers. The total sum of the measurements per rat is a value of ulcer index.
The compounds under test shown in TABLE 3, suspended in 0.5% carboxymethylcellulose (CMC), were administered to the rats at a single dose of 30 mg/kg body weight of the compound one hour prior to the stressing. To a control group, only 0.5% CMC was administered. The antiulcer activity was calculated according to the following equation: [formula]

Ethanol-induced ulcer = assay: Ethanol-induced ulcer; assay type: in vivo, Donryu masculine rats; settings: rats; 100% ethanol 5 ml/kg orally; compound in 0.5% CMC orally at 5 ml/kg; one hour
Procedure: Five (5) ml/kg of 100% ethanol was orally administered to Donryu masculine rats fasted for 48 hours and dehydrated for 24 hours. Then, the compounds under test, suspended in 0.5% CMC, were orally administered to the rats at a dose of 5 ml/kg body weight. One hour later, the rats were put down in a similar manner as mentioned above to remove and treat the stomach.

Acute toxicity = assay type: in vivo; settings: mice, three per group

Work on `CCN=C(NC#N)NCCSc1nc2cc(Cl)ccc2s1` [Example 27, N-(5-chlorobenzothiazol-2-yl)thioethyl--N'-cyano--N"-ethylguanidine] yielded an MIC [1] of 12.5 µg/mL (≈ 36.8 µM) and an MIC [2] of 12.5 µg/mL (≈ 36.8 µM).
In the case of `[O-][S+](CCN1CCOCC1)c1nc2ccc(Cl)cc2s1` (stereo not shown) [Example 37, 6-chloro-2-[(2-morpholinoethyl)sulfinyl]benzothiazole], the MIC [1] is reported as 6.25 µg/mL (≈ 18.9 µM), the inhibition in vivo at 30 mg/kg [3] is reported as 78% and the MIC [2] is reported as 3.13 µg/mL (≈ 9.46 µM).
`CCOCC[S+]([O-])c1nc2ccc(OC)cc2[nH]1` (stereo not shown) [Example 72, 5-methoxy-2-[(2-ethoxyethyl)sulfinyl]benzimidazole] showed an inhibition in vivo at 30 mg/kg [3] of 65.6%.
In the case of `CCOCC[S+]([O-])c1nc2cc([N+](=O)[O-])ccc2s1` (stereo not shown) [Example 78, 5-nitro-2-[(2-ethoxyethyl)sulfinyl]benzothiazole], the MIC [1] is reported as 6.25 µg/mL (≈ 20.8 µM), the inhibition in vivo at 30 mg/kg [3] is reported as 60.7% and the MIC [2] is reported as 6.25 µg/mL (≈ 20.8 µM).
`CCOCC[S+]([O-])c1nc(-c2ccsc2)cs1` (stereo not shown) [Example 14, 2-[(2-ethoxyethyl)sulfinyl]-4-(3-thienyl)thiazole] gave an MIC [1] of 100 µg/mL (≈ 348 µM), an inhibition in vivo at 30 mg/kg [3] of 62.7% and an MIC [2] of 50 µg/mL (≈ 174 µM).
Work on `CC1(C)S[C@@H]2[C@H](NC(=O)[C@H](N)c3ccccc3)C(=O)N2[C@H]1C(=O)O` [Aminobenzylpenicillin, reference compound] yielded an MIC [1] of 0.2 µg/mL (≈ 0.572 µM) and an MIC [2] of 0.025 µg/mL (≈ 0.0715 µM).
`[O-][S+](CCN1CCOCC1)c1nc2cccc(Cl)c2s1` (stereo not shown) [Example 35, 7-chloro-2-[(2-morpholinoethyl)sulfinyl]benzothiazole] showed an MIC [1] of 6.25 µg/mL (≈ 18.9 µM), an inhibition in vivo at 30 mg/kg [3] of 72.1% and an MIC [2] of 3.13 µg/mL (≈ 9.46 µM).
In the case of `COc1ccc2[nH]c([S+]([O-])Cc3ncc(C)c(OC)c3C)nc2c1` (stereo not shown) [Omeprazole, reference compound], the inhibition in vivo at 30 mg/kg [3] is reported as 90%.
In the case of `O=C(NCCCl)NCC[S+]([O-])c1nc2cc(Cl)ccc2s1` (stereo not shown) [Example 24, N-(5-chlorobenzothiazol-2-y1)sulfinylethyl--N'-(2-chloroethyl)urea], the inhibition in vivo at 30 mg/kg [3] is reported as 70.1%.
Molecule `O=C(NCCCl)NCCSc1nc2cc(Cl)ccc2s1` [Example 23, N-(5-chlorobenzothiazol-2-yl)thioethyl--N'-(2-chloroethyl)urea] has an MIC [1] of 12.5 µg/mL (≈ 35.7 µM) and an MIC [2] of 12.5 µg/mL (≈ 35.7 µM).
In the case of `CCNC(=O)NCC[S+]([O-])c1nc2cc(Cl)ccc2s1` (stereo not shown) [Example 22, N-(5-chlorobenzothiazol-2-yl)sulfinylethyl--N'-ethylurea], the inhibition in vivo at 30 mg/kg [3] is reported as 63.1%.
`[O-][S+](CCN1CCOCC1)c1nc2ccc(Cl)cc2[nH]1` (stereo not shown) [Example 49, 5-chloro-2-[(2-morpholinoethyl)sulfinyl]benzimidazole] gave an inhibition in vivo at 30 mg/kg [3] of 63.6%.
With `CCN=C(NC#N)NCC[S+]([O-])c1nc2cc(Cl)ccc2s1` (stereo not shown) [Example 28, N-(5-chlorobenzothiazol-2-yl)sulfinylethyl--N'-cyano--N"-ethylguanidine] the inhibition in vivo at 30 mg/kg [3] was 57%.
Work on `CCOCC[S+]([O-])c1nc2ccc(Cl)cc2s1` (stereo not shown) [Example 63, 6-chloro-2-[(2-ethoxyethyl)sulfinyl]benzothiazole] yielded an MIC [1] of 6.25 µg/mL (≈ 21.6 µM), an inhibition in vivo at 30 mg/kg [3] of 76.5% and an MIC [2] of 3.13 µg/mL (≈ 10.8 µM).
`CCOCC[S+]([O-])c1nc2cc(C(F)(F)F)ccc2s1` (stereo not shown) [Example 76, 5-trifluoromethyl-2-[(2-ethoxyethyl)sulfinyl]benzothiazole] showed an inhibition in vivo at 30 mg/kg [3] of 61.3%.
`CCOCC[S+]([O-])c1nc(-c2cccnc2)cs1` (stereo not shown) [Example 2, 2-[(2-ethoxyethyl)sulfinyl]-4-(3-pyridyl)thiazole] gave an inhibition in vivo at 30 mg/kg [3] of 72.5%.
For `CCNC(=S)NCCSc1nc2cc(Cl)ccc2s1` [Example 25, N-(5-chlorobenzothiazol-2-yl)thioethyl--N'-ethylthiourea], the MIC [1] was 0.025 µg/mL (≈ 0.0753 µM), the inhibition in vivo at 30 mg/kg [3] was 64.2% and the MIC [2] was 0.025 µg/mL (≈ 0.0753 µM).
`CCOCC[S+]([O-])c1nc2cccc(Cl)c2s1` (stereo not shown) [Example 61, 7-chloro-2-[(2-ethoxyethyl)sulfinyl]benzothiazole] showed an inhibition in vivo at 30 mg/kg [3] of 61.8%.
`CC(C)N(CC[S+]([O-])c1nc(-c2cccnc2)cs1)C(C)C` (stereo not shown) [Example 8] showed an inhibition in vivo at 30 mg/kg [3] of 70.5%.
`CCOCC[S+]([O-])c1ncc(-c2ccccc2)s1` (stereo not shown) [Example 12, 2-[(2-ethoxyethyl)sulfinyl]-5-phenylthiazole] gave an inhibition in vivo at 30 mg/kg [3] of 52.5%.
`CC1COc2c(N3CCN(C)CC3)c(F)cc3c(=O)c(C(=O)O)cn1c23` (stereo not shown) [Ofloxacin, reference compound] showed an MIC [1] of 0.78 µg/mL (≈ 2.16 µM) and an MIC [2] of 0.78 µg/mL (≈ 2.16 µM).
In the case of `[O-][S+](CCN1CCOCC1)c1nc2cc(Cl)ccc2s1` (stereo not shown) [Example 32, 5-chloro-2-[(2-morpholinoethyl)sulfinyl]benzothiazole], the MIC [1] is reported as 3.13 µg/mL (≈ 9.46 µM), the depression of erosion (Ethanol-induced ulcer) is reported as 93.0% and the inhibition in vivo at 30 mg/kg [3] is reported as 83.1%. For the same molecule, the MIC [2] was 1.56 µg/mL (≈ 4.71 µM).
In the case of `Clc1ccc2sc(SCCN3CCOCC3)nc2c1` [Example 31, 5-chloro-2-[(2-morpholinoethyl)thio]benzothiazole], the “Acute toxicity (deaths)” value (Acute toxicity; intraperitoneal dose of 100 mgkg) is reported as “none of the animals were sacrificed” and the “Acute toxicity (deaths)” value (Acute toxicity; peroral dose of 300 mgkg) is reported as “none of the animals were sacrificed”.
With `[O-][S+](CCOCCCl)c1nc2cc(Cl)ccc2s1` (stereo not shown) [Example 67, 5-chloro-2-{[2-(2-chloroethoxy)ethyl]sulfinyl}benzothiazole] the “Inhibition (%)” value [3] was 53.3%.
With `CN1CCCC1CC[S+]([O-])c1nc2cc(Cl)ccc2s1` (stereo not shown) [Example 47, 5-chloro-2-{[2-(N-methylpyrrolidin-2-Y1)ethyl]sulfinyl}benzothiazole] the MIC [1] was 3.13 µg/mL (≈ 9.52 µM) and the MIC [2] was 0.39 µg/mL (≈ 1.19 µM).

Reference: patent US5171746A, “Thiazole and imidazole derivatives and antiulcer composition containing same” (priority 1990, dated 1992)
